Tested on: H9 embryonic stem cells
Format: cell-based, human
Conditions: low serum, on MATRIGEL
Experimental: Controls for each group included cells plated on […]-coated dishes and cultured in MEF-conditioned medium or cells plated on MEFs and cultured in ES medium. All groups contained three biological replicates and each biological replicate was repeated on two separate gene chips.
Sample preparation, hybridization, and image analysis were performed according to the Affymetrix Human Genome U133 Plus 2.0 Array. Following normalization and a log transformation, data analysis was performed using OmniViz® software (MA) and […] (VizXLabs, WA). Significant differences in gene expression between the samples were evaluated using analysis of variance and an F-test with adjusted P-value (Benjamini and
Hochberg correction) of ≦b 0.05. Only genes with a present call in at least one group were included in the analysis.

With “Activin A: a member of the TGFβ superfamily; R&D Systems; Group 2 = Activin A (100 ng/ml)” the “log intensity, H2A histone family, member X” value was 1.371, the “log intensity, H. sapiens skeletal embryonic myosin light chain 1 (MLC1)” value was 0.6901 and the “log intensity, HT016 mRNA” value was 0.2188. For the same substance, the “log intensity, Homo sapiens nudix (nucleoside diphosphate linked moiety X)-type motif (r1198)” value was 3.915, the “log intensity, Human DNA sequence from clone RP4-781L3 on chromosome 1p34.3-36.11” value was 2.828 and the “log intensity, Human DNA sequence from clone RP11-446H13 on chromosome 10” value was −0.8894. The “log intensity, Human MLC1emb gene for embryonic myosin alkaline light chain, promoter and exon 1” value was 1.3489, the “log intensity, Human clone 23826 mRNA sequence” value was 1.808 and the “log intensity, Human embryonic myosin alkali light chain (MLC1)” value was 1.942. The “log intensity, Human extracellular matrix protein 1 (ECM1)” value was 0.6348, the “log intensity, Human mRNA for pro-alpha 1 (II) collagen 3end C-term.” value was 0.8598 and the “log intensity, Human rho GDI mRNA” value was 0.01936. For the same substance, the “log intensity, KIAA0127 gene product (KIAA0127)” value was 2.052, the “log intensity, KIAA0346 protein” value was −1.347 and the “log intensity, KIAA0418 gene product” value was −0.6776. For the same substance, the “log intensity, KIAA0761 protein” value was −2.096, the “log intensity, KIAA0882 protein” value was 2.056 and the “log intensity, KIAA0918 protein” value was −1.397. The “log intensity, KIAA1415 protein” value was 0.1859, the “log intensity, KIAA1511 protein” value was 0.6203 and the “log intensity, Kruppel-like factor 8 (KLF8)” value was 0.3261. For the same substance, the “log intensity, LIM homeobox protein 1 (LHX1)” value was −0.7717, the “log intensity, LYST-interacting protein LIP3” value was −0.6821 and the “log intensity, MAD (mothers against decapentaplegic, Drosophila) homolog 6 (MADH6)” value was 0.9175. The “log intensity, MYC-associated zinc finger protein (purine-binding transcription factor) (MAZ)” value was −0.05557, the “log intensity, Novel human mRNA from chromosome 22” value was −0.5337 and the “log intensity, PNAS-145 mRNA” value was 2.85. The “log intensity, PRO1957 mRNA” value was 1.689, the “log intensity, PTPRF interacting protein, binding protein 2 (liprin beta 2)” value was −1.92 and the “log intensity, Pig10 (PIG10)” value was 0.1295. The “log intensity, SG2NA beta isoform” value was −1.156, the “log intensity, Similar to B9 protein, clone MGC: 11339” value was 1.439 and the “log intensity, Similar to RIKEN cDNA C330013D18 gene, clone MGC: 11226” value was 0.08747. For the same substance, the “log intensity, Similar to lipase protein, clone MGC: 2843” value was −1.161, the “log intensity, X75208 H. sapiens HEK2 mRNA for protein tyrosine kinase receptor” value was −1.367 and the “log intensity, adaptor-related protein complex 3, beta 2 subunit (AP3B2)” value was −0.2083. The “log intensity, adenylate cyclase 8 (brain) (ADCY8)” value was −1.3408, the “log intensity, alpha 2,8-sialyltransferase” value was −1.105 and the “log intensity, aminolevulinate, delta-, dehydratase, clone MGC: 5057” value was 1.3099. For the same substance, the “log intensity, annexin A6 (ANXA6), transcript variant 1” value was 3.89, the “log intensity, apolipoprotein A-II (APOA2)” value was −1.102 and the “log intensity, apolipoprotein C-I (APOC1)” value was 3.25. The “log intensity, arrestin, beta 1 (ARRB1), transcript variant 1” value was −0.1588, the “log intensity, bHLH factor Hes4 (LOC57801)” value was 0.4782 and the “log intensity, beta3GalNAcT-1 mRNA for globoside synthase, clone: type 2” value was −2.733. The “log intensity, bone morphogenetic protein 2 (BMP2)” value was 2.045, the “log intensity, bone morphogenetic protein 5 (BMP5)” value was −0.6099 and the “log intensity, bromodomain and PHD finger containing, 3” value was −2.8472. The “log intensity, c-mer proto-oncogene tyrosine kinase (MERTK)” value was 1.79, the “log intensity, cDNA FLJ11390 fis, clone HEMBA1000561” value was −1.129 and the “log intensity, cDNA FLJ13221 fis, clone NT2RP4002075” value was 0.2828. The “log intensity, cDNA FLJ13392 fis, clone PLACE1001280” value was −1.902, the “log intensity, cDNA FLJ13810 fis, clone THYRO1000279” value was −2.924 and the “log intensity, cDNA FLJ30081 fis, clone BGGI12000693” value was 0.6779. For the same substance, the “log intensity, cDNA FLJ34035 fis, clone FCBBF2004788” value was −3.58, the “log intensity, cDNA FLJ36116 fis, clone TESTI2022338” value was 3.026 and the “log intensity, cDNA: FLJ22731 fis, clone HSI15841” value was −2.309. The “log intensity, cDNA: FLJ22808 fis, clone KAIA2925” value was −0.3674, the “log intensity, cDNA: FLJ23067 fis, clone LNG04993” value was −2.256 and the “log intensity, calmegin (CLGN)” value was −0.1043. The “log intensity, cardiac ankyrin repeat protein (CARP)” value was −0.002291, the “log intensity, cartilage linking protein 1” value was 0.8794 and the “log intensity, caspase-like apoptosis regulatory protein 2 (clarp)” value was 0.4342. For the same substance, the “log intensity, chemokine receptor CXCR4 mRNA” value was 2.306, the “log intensity, cleft lip and palate associated transmembrane protein 1, clone MGC: 10593” value was 1.316 and the “log intensity, clone FLC1492 PRO3121 mRNA” value was −0.3. The “log intensity, clone HB-2 mRNA sequence” value was −0.5039, the “log intensity, clone IMAGE: 3509274, mRNA, partial cds” value was 0.4937 and the “log intensity, clone IMAGE: 4047715, mRNA” value was −2.508. For the same substance, the “log intensity, clone MGC: 14801” value was 2.039, the “log intensity, clone MGC: 24252 IMAGE: 3932604” value was −1.533 and the “log intensity, clone TUA8 Cri-du-chat region mRNA” value was 0.09218. For the same substance, the “log intensity, collagen, type V, alpha 1” value was 1.5875, the “log intensity, complement component 5 (C5)” value was −1.896 and the “log intensity, core histone macroH2A2.2 (MACROH2A2)” value was 1.673. The “log intensity, cystatin C (amyloid angiopathy and cerebral hemorrhage) (CST3)” value was 2.086, the “log intensity, deiodinase, iodothyronine, type III (DIO3)” value was −0.1369 and the “log intensity, dickkopf (Xenopus laevis) homolog 1 (DKK1)” value was 0.9815. The “log intensity, dual specificity phosphatase 4, clone MGC: 3713” value was 2.115, the “log intensity, dynein, axonemal, light polypeptide 4 (DNAL4)” value was 0.4583 and the “log intensity, dystrophin (muscular dystrophy, Duchenne and Becker types) (DMD), transcript variant Dp427p2” value was 1.404. The “log intensity, ectodermal dysplasia 1, anhidrotic (ED1)” value was 0.7966, the “log intensity, elongation of very long chain fatty acids (FEN1Elo2, SUR4Elo3, yeast)-like 2 (ELOVL2)” value was 0.09998 and the “log intensity, endothelin receptor type A (EDNRA), mRNA” value was 0.763. The “log intensity, endothelin receptor type A (r1027)” value was −1.834, the “log intensity, enolase 2, (gamma, neuronal) (ENO2)” value was 2.606 and the “log intensity, eomesodermin (Xenopus laevis) homolog (EOMES)” value was 2.659. The “log intensity, erythrocyte membrane protein band 4.9 (dematin) (EPB49)” value was −0.3066, the “log intensity, fasciculation and elongation protein zeta 1 (zygin I) (FEZ1), transcript variant 1” value was 1.864 and the “log intensity, forkhead box F2 (FOXF2)” value was −1.545. For the same substance, the “log intensity, gelsolin (amyloidosis, Finnish type) (GSN)” value was 1.6198, the “log intensity, glucose-6-phosphate transporter (G6PT) gene, G6PT-Dt allele” value was −0.1935 and the “log intensity, glutathione S-transferase A2 (GSTA2)” value was −3.106. The “log intensity, glycoprotein M6A” value was 0.2744, the “log intensity, guanylate cyclase activator 1B (retina) (GUCA1B)” value was −0.7142 and the “log intensity, heparan sulfate proteoglycan 2 (perlecan)” value was −2.533. For the same substance, the “log intensity, hexabrachion (tenascin C, cytotactin) (HXB)” value was 3.969, the “log intensity, high mobility group protein-R” value was 1.047 and the “log intensity, hypothetical protein BC017868 (LOC159091)” value was −0.2902. For the same substance, the “log intensity, hypothetical protein DKFZp434F0318” value was −1.115, the “log intensity, hypothetical protein DKFZp434F2322” value was 0.07058 and the “log intensity, hypothetical protein DKFZp564B052” value was 1.478. The “log intensity, hypothetical protein FLJ10312” value was 1.595, the “log intensity, hypothetical protein FLJ11155” value was −3.346 and the “log intensity, hypothetical protein FLJ11560” value was −0.04411. The “log intensity, hypothetical protein FLJ12538 similar to ras-related protein RAB17” value was 1.706, the “log intensity, hypothetical protein FLJ12666 (r758)” value was 0.2158 and the “log intensity, hypothetical protein FLJ12666 (r998)” value was 2.341. The “log intensity, hypothetical protein FLJ12838” value was 1.491, the “log intensity, hypothetical protein FLJ21195 similar to protein related to DAC and cerberus” value was −1.385 and the “log intensity, hypothetical protein FLJ22471” value was 0.9038. For the same substance, the “log intensity, hypothetical protein FLJ23091” value was −0.7609, the “log intensity, hypothetical protein FLJ23514” value was 0.5646 and the “log intensity, hypothetical protein FLJ32835” value was −0.5956. For the same substance, the “log intensity, hypothetical protein MGC2865, clone MGC: 20246” value was −2.431, the “log intensity, insulin-like growth factor binding protein 6 (IGFBP6)” value was 2.6126 and the “log intensity, keratin 19 (KRT19)” value was 3.806. For the same substance, the “log intensity, kidney-specific membrane protein NX-17” value was 1.919, the “log intensity, lipase mRNA” value was −2.2131 and the “log intensity, lymphocyte antigen 6 complex, locus E (LY6E)” value was 0.8664. For the same substance, the “log intensity, mRNA for KIAA0876 protein” value was −0.432, the “log intensity, mRNA for KIAA1161 protein” value was 0.7818 and the “log intensity, mRNA for MSX-2” value was 0.4072. For the same substance, the “log intensity, mRNA for protein-tyrosine kinase” value was 0.161, the “log intensity, mRNA; cDNA DKFZp434E082” value was 1.364 and the “log intensity, mRNA; cDNA DKFZp434K0621” value was 0.5814. The “log intensity, mRNA; cDNA DKFZp434P228” value was 1.768, the “log intensity, mRNA; cDNA DKFZp547H236” value was 1.372 and the “log intensity, mRNA; cDNA DKFZp564K1672” value was 4.494. The “log intensity, mRNA; cDNA DKFZp586G2120” value was −1.809, the “log intensity, mRNA; cDNA DKFZp586L0120” value was −2.726 and the “log intensity, mRNA; cDNA DKFZp762H185” value was 2.837. For the same substance, the “log intensity, mandaselin long form” value was −0.1481, the “log intensity, matrix metalloproteinase 15 (membrane-inserted) (MMP15)” value was −0.2985 and the “log intensity, microseminoprotein, beta-(MSMB)” value was −2.379. The “log intensity, mitogen-activated protein kinase 10 (MAPK10)” value was 0.648, the “log intensity, nuclear factor of kappa light polypeptide gene enhancer in B-cells inhibitor, alpha” value was 2.915 and the “log intensity, nuclear receptor subfamily 0, group B, member 1 (NR0B1) (r534)” value was −1.928. The “log intensity, nuclear receptor subfamily 0, group B, member 1 (NR0B1) (r1079)” value was −0.2138.

Reference: US20100255580A1, “Differentiation of Human Embryonic Stem Cells” (LIFESCCAN, INC., priority 2007, published 2010)
